Measurements published in patent publication US5508437A, “Analogs of tyrosine sulfate or tyrosine phosphate containing peptides” (Hoffmann-La Roche Inc., priority 1993, dated 1996).
Where two headings read alike, the source gives them in different places. Starred links: 1 amine or outer side, 2 acyl side, 3 side chain; linkers in the order of their positions; H or OH if unused. Non-standard residues stand in square brackets, D forms with d. Residues, ends and D or L forms follow the SMILES beside them. *: point of attachment. Phe(4-tetrazol-5-yl) = N[C@@H](Cc1ccc(-c2nnn[nH]2)cc1)C(=O)O; Propanoyl(3-(4-HOOCCH2-Ph)) = O=C(O)Cc1ccc(CCC(=O)*)cc1; X15 = O=C([C@@H](Cc1ccc(-c2nn[nH]n2)cc1)N[*:1])[*:2]; X6 = O=C([C@H](Cc1ccc(Cc2nnn[nH]2)cc1)N[*:1])[*:2]; X13 = O=C(O)C(F)(F)c1ccc(CC(N[*:1])C(=O)[*:2])cc1; X3 = CCOC(=O)Cc1ccc(C[C@@H](N[*:1])C(=O)[*:2])cc1; X7 = O=C(C(Cc1ccc(-c2nn[nH]n2)cc1)N[*:1])[*:2]; X8 = O=C(C(Cc1ccc(Cc2nn[nH]n2)cc1)N[*:1])[*:2]; X1 = O=C(O)Cc1ccc(CC(N[*:1])C(=O)[*:2])cc1; X14 = O=C(O)c1cccc(CC(N[*:1])C(=O)[*:2])c1; X16 = O=C(CCc1ccc(-c2nnn[nH]2)cc1)*; X2 = O=C(CCc1ccc(Cc2nnn[nH]2)cc1)*; NMeF = CN[C@@H](Cc1ccccc1)C(=O)O; Nle = CCCC[C@H](N)C(=O)O

Columns and labels:
[1] = biological target: T1, Bovine Striatum (3H-CCK-8-(SO3 H) receptor binding) (Bos taurus, UniProt P79266); assay: In vitro receptor binding assay, 3H-CCK-8-(SO3H), bovine striatum homogenate
T1 construct: tissue homogenate (striatum approximately 0.26 mg protein in 2 mL final volume); from tissue; host or cells: bovine striatum membrane homogenate
T1 sequence (P79266 1-454): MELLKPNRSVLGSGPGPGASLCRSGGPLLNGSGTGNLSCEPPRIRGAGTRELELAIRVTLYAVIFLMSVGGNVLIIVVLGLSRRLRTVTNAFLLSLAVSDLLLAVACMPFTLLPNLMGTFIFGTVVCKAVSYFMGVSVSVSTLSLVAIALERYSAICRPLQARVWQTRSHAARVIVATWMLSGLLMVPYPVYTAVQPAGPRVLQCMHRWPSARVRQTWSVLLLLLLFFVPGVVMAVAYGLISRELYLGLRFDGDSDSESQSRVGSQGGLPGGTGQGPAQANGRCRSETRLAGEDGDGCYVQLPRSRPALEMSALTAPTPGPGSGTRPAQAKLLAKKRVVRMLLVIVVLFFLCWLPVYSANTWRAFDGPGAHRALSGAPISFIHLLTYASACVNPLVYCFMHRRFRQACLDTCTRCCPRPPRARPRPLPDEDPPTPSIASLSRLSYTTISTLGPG
Procedure: (§1) Frozen bovine striatum (approx. 5 g) or fresh rat pancreas (approx. 5 g) cleaned of fat and extraneous tissue were homogenized in HEPES buffer #1 (10 mM HEPES+130 mM NaCl+5 mM MgCl2, pH 7.4) using 35 parts buffer per 1 part tissue on a wet weight/volume basis (approx. 175 mL). The tissue was homogenized 2×for approx. 15 sec. at 0° C. using a Polytron homogenizer at a setting of 6. The tissue was isolated by centrifugation at 48,000× g for 10 min at 0° C. The resulting tissue pellet was resuspended in HEPES buffer #2 (10 mM HEPES+130 mM NaCl+5 mM MgCl2 +1 mg/L phenylmethanasulfonyl fluoride (PMSF)+200 mg/L Bacitracin): 1 part striatal tissue (original wet weight) per 80 parts buffer and 1 part pancreas tissue (original wet weight) per 500 to 1000 parts buffer.
(§2) Incubation was initiated by combining various concentrations of native CCK-8 or peptides of the invention with ^3 H-CCK-8-(SO3 H) (final conc.=0.15 nM) and tissue homogenate (striatum approximately 0.26 mg protein in 2 mL final volume; pancreas approximately 0.100 mg protein in 1 mL final volume). Samples were incubated for 30 min at 25° C. and the incubation terminated by pouring the mixture onto a pre-wetted Whatman GF/B filter on a Sandbeck Vacuum Filtration Manifold. The incubation tubes were washed with 2×3 mL of ice-cold HEPES Buffer #2 and the wash filtered through the GF/B filter. The filter was air dried for 10 min and then placed in a scintillation vial with 12 mL of DuPont/NEN Aquasol scintillation cocktail. The vials were shaken overnight and then counted using a liquid scintillation spectrometer. Non-specific binding was determined in the presence of 1 micromolar native CCK-8 and subtracted from all samples to determine specific binding. The concentration of peptide necessary to inhibit 50% of total specific H-CCK-8-(SO3 H) binding (IC50 value) was determined by log-probit analysis.

[2] = biological target: T2, rat pancreas (3H-CCK-8-(SO3 H) receptor binding) (Rattus norvegicus, UniProt P30551); assay: In vitro receptor binding assay, 3H-CCK-8-(SO3H), rat pancreas homogenate
T2 construct: pancreas approximately 0.100 mg protein in 1 mL final volume; from tissue; host or cells: rat pancreas membrane homogenate
T2 sequence (P30551 1-444): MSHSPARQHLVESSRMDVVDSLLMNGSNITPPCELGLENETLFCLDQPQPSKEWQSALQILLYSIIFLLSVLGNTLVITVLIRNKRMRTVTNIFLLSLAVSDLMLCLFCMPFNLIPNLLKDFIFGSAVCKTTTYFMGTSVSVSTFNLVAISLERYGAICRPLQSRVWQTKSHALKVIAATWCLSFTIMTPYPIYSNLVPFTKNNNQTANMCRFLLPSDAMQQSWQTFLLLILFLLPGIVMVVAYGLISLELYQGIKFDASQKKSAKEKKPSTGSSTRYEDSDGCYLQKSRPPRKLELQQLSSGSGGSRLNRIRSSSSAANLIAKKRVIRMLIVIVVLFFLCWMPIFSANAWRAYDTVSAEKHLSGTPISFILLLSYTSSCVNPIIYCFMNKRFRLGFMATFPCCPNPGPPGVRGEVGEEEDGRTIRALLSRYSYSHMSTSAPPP
Procedure: as §1, §2

[3] = 3H-CCK-8-(SO3H) 0.15 nM, 30 min at 25° C., bovine striatum homogenate, read-out: Bovine Striatum IC50 (concentration to inhibit 50% of specific 3H-CCK-8-(SO3H) binding)
[4] = 3H-CCK-8-(SO3H) 0.15 nM, 30 min at 25° C., rat pancreas homogenate, read-out: Rate Pancreas IC50 (concentration to inhibit 50% of specific 3H-CCK-8-(SO3H) binding)

Row | IC50 [1, 3] | IC50 [2, 4] | Structure (SMILES) | IC50 [1] | IC50 [2]
1 | 1.4 µM | 1.8 µM | CCCC[C@H](NC(=O)CCc1ccc(CC(=O)O)cc1)C(=O)N[C@H](C)C(=O)N[C@@H](Cc1c[nH]c2ccccc12)C(=O)N[C@@H](CCCC)C(=O)N[C@@H](CC(=O)O)C(=O)N(C)[C@@H](Cc1ccccc1)C(N)=O [Example 71, Desamino-Phe(4-CH2 COOH)-Nle-(D)Ala-Trp-Nle- Asp-N-methyl-Phe-NH2] ({Propanoyl(3-(4-HOOCCH2-Ph))}-[Nle][dA]W[Nle]D[NMeF]-NH2) |  | 
2 | 0.05 µM |  | CSCC[C@H](NC(=O)[C@H](Cc1c[nH]c2ccccc12)NC(=O)CNC(=O)[C@H](CCSC)NC(=O)[C@@H](Cc1ccc(-c2nn[nH]n2)cc1)NC(C)=O)C(=O)N[C@@H](CC(=O)O)C(=O)N[C@@H](Cc1ccccc1)C(N)=O [Example 54, Ac-(D)Phe(4-tetrazole)-Met-Gly-Trp-Met-Asp-Phe-NH2] (Ac-[X15]MGWMDF-NH2) |  | 
3 | 0.26 µM | 0.64 µM | CCCC[C@H](NC(=O)C(Cc1ccc(Cc2nn[nH]n2)cc1)NC(C)=O)C(=O)NCC(=O)N[C@@H](Cc1c[nH]c2ccccc12)C(=O)N[C@@H](CCCC)C(=O)N[C@@H](CC(=O)O)C(=O)N(C)[C@@H](Cc1ccccc1)C(N)=O (stereo partly drawn) [Example 63, Ac-(D,L)Phe(4-CH2 -tetrazole)-Nle-Gly-Trp-Nle-Asp-N-methyl-Phe-NH2] (Ac-[X8][Nle]GW[Nle]D[NMeF]-NH2) |  | 
4 | 0.069 µM | 0.26 µM | CCCC[C@H](NC(=O)[C@H](Cc1ccc(Cc2nnn[nH]2)cc1)NC(C)=O)C(=O)NCC(=O)N[C@@H](Cc1c[nH]c2ccccc12)C(=O)N[C@@H](CCCC)C(=O)N[C@@H](CC(=O)O)C(=O)N(C)[C@@H](Cc1ccccc1)C(N)=O [Example 65, Ac-Phe(4-CH2 -tetrazole) -Nle-Gly-Trp-Nle-Asp- N-methyl-Phe-NH2] (Ac-[X6][Nle]GW[Nle]D[NMeF]-NH2) |  | 
5 | 0.032 µM | 0.128 µM | CSCC[C@H](NC(=O)C(Cc1cccc(C(=O)O)c1)NC(C)=O)C(=O)NCC(=O)N[C@@H](Cc1c[nH]c2ccccc12)C(=O)N[C@@H](CCSC)C(=O)N[C@@H](CC(=O)O)C(=O)N[C@@H](Cc1ccccc1)C(N)=O (stereo partly drawn) [Example 42, Ac-(D,L)Phe(3-COOH)-Met-Gly-Trp-Met-Asp-Phe-NH2] (Ac-[X14]MGWMDF-NH2) |  | 
6 | 0.16 µM | 0.71 µM | CCCC[C@H](NC(=O)CCc1ccc(Cc2nnn[nH]2)cc1)C(=O)NCC(=O)N[C@@H](Cc1c[nH]c2ccccc12)C(=O)N[C@@H](CCCC)C(=O)N[C@@H](CC(=O)O)C(=O)N(C)[C@@H](Cc1ccccc1)C(N)=O [Example 66, Desamino-Phe(4-CH2 -tetrazole)-Nle-Gly-Trp-Nle-Asp-N-methyl-Phe-NH2] (X2-[Nle]GW[Nle]D[NMeF]-NH2) |  | 
7 | 0.34 µM | 0.73 µM | CSCC[C@H](NC(=O)C(Cc1ccc(Cc2nn[nH]n2)cc1)NC(C)=O)C(=O)NCC(=O)N[C@@H](Cc1c[nH]c2ccccc12)C(=O)N[C@@H](CCSC)C(=O)N[C@@H](CC(=O)O)C(=O)N[C@@H](Cc1ccccc1)C(N)=O (stereo partly drawn) [Example 60, Ac-(D,L)Phe(4-CH2 tetrazole)-Met-Gly-Trp-Met-Asp-Phe-NH2] (Ac-[X8]MGWMDF-NH2) |  | 
8 | 0.0016 µM | 0.022 µM | CSCC[C@H](NC(=O)C(Cc1ccc(-c2nn[nH]n2)cc1)NC(C)=O)C(=O)NCC(=O)N[C@@H](Cc1c[nH]c2ccccc12)C(=O)N[C@@H](CCSC)C(=O)N[C@@H](CC(=O)O)C(=O)N[C@@H](Cc1ccccc1)C(N)=O (stereo partly drawn) [Example 53, Ac-(D,L)Phe(4-tetrazole)-Met-Gly-Trp-Met-Asp-Phe-NH2] (Ac-[X7]MGWMDF-NH2) |  | 
9 | 10 µM | 1 µM | CCOC(=O)Cc1ccc(C[C@@H](NC(C)=O)C(=O)N[C@@H](CCSC)C(=O)NCC(=O)N[C@@H](Cc2c[nH]c3ccccc23)C(=O)N[C@@H](CCSC)C(=O)N[C@@H](CC(=O)OCC)C(=O)N[C@@H](Cc2ccccc2)C(N)=O)cc1 [Example 49, Ac-(D)Phe(4-CH2 COOC2 H5)-Met-Gly-Trp-Met-Asp(COOC2H5)-Phe-NH2] (Ac-[X3]MGWMD(OEt)F-NH2) |  | 
10 | 0.2 µM | 0.33 µM | CCCC[C@H](NC(=O)CCc1ccc(CC(=O)O)cc1)C(=O)NCC(=O)N[C@@H](Cc1c[nH]c2ccccc12)C(=O)N[C@@H](CCCC)C(=O)N[C@@H](CC(=O)O)C(=O)N(C)[C@@H](Cc1ccccc1)C(N)=O [Example 70, Desamino-Phe(4-CH2 COOH)-Nle-Gly-Trp-Nle-Asp-N-methyl-Phe-NH2] ({Propanoyl(3-(4-HOOCCH2-Ph))}-[Nle]GW[Nle]D[NMeF]-NH2) |  | 
11 | 0.001 to 0.0032 µM | 0.001 to 0.0046 µM | CSCC[C@H](NC(=O)[C@H](Cc1ccc(OS(=O)(=O)O)cc1)NC(=O)[C@@H](N)CC(=O)O)C(=O)NCC(=O)N[C@@H](Cc1c[nH]c2ccccc12)C(=O)N[C@@H](CCSC)C(=O)N[C@@H](CC(=O)O)C(=O)N[C@@H](Cc1ccccc1)C(N)=O [CCK-8, AspTyr(SO3 H)MetGlyTrpMetAspPheNH2, reference compound] |  | 
12 | 0.047 µM | 0.0036 µM | CSCC[C@H](NC(=O)C(Cc1ccc(CC(=O)O)cc1)NC(C)=O)C(=O)NCC(=O)N[C@@H](Cc1c[nH]c2ccccc12)C(=O)N[C@@H](CCSC)C(=O)N[C@@H](CC(=O)O)C(=O)N[C@@H](Cc1ccccc1)C(N)=O (stereo partly drawn) [Example 46, Ac-(D,L)Phe(4-CH2 COOH)-Met-Gly-Trp-Met-Asp-Phe-NH2] (Ac-[X1]MGWMDF-NH2) |  | 
13 |  | 0.057 µM | CSCC[C@H](NC(=O)CCc1ccc(CC(=O)O)cc1)C(=O)NCC(=O)N[C@@H](Cc1c[nH]c2ccccc12)C(=O)N[C@@H](CCSC)C(=O)N[C@@H](CC(=O)O)C(=O)N[C@@H](Cc1ccccc1)C(N)=O [Example 59, Desamino Phe(4-CH2 -COOH)-Met-Gly-Trp-Met-Asp-Phe-NH2] ({Propanoyl(3-(4-HOOCCH2-Ph))}-MGWMDF-NH2) |  | 
14 |  |  | CSCC[C@H](NC(=O)C(Cc1ccc(C(F)(F)C(=O)O)cc1)NC(C)=O)C(=O)NCC(=O)N[C@@H](Cc1c[nH]c2ccccc12)C(=O)N[C@@H](CCSC)C(=O)N[C@@H](CC(=O)O)C(=O)N[C@@H](Cc1ccccc1)C(N)=O (stereo partly drawn) [Example 52, Ac-(D,L)Phe(4-CF2 COOH)-Met-Gly-Trp-Met-Asp-Phe-NH2] (Ac-[X13]MGWMDF-NH2) | 0.066 µM | 0.081 µM
15 | 0.0051 µM |  | CSCC[C@H](NC(=O)CCc1ccc(-c2nnn[nH]2)cc1)C(=O)NCC(=O)N[C@@H](Cc1c[nH]c2ccccc12)C(=O)N[C@@H](CCSC)C(=O)N[C@@H](CC(=O)O)C(=O)N[C@@H](Cc1ccccc1)C(N)=O [Example 67, Desamino-Phe(4-tetrazole)-Met-Gly-Trp-Met-Asp-Phe-NH2] (X16-MGWMDF-NH2) |  | 
16 | 0.00051 µM |  | CSCC[C@H](NC(=O)[C@H](Cc1ccc(-c2nnn[nH]2)cc1)NC(C)=O)C(=O)NCC(=O)N[C@@H](Cc1c[nH]c2ccccc12)C(=O)N[C@@H](CCSC)C(=O)N[C@@H](CC(=O)O)C(=O)N[C@@H](Cc1ccccc1)C(N)=O [Example 55, AcPhe(4-tetrazole)MetGlyTrpMetAspPheNH2] (Ac-[Phe(4-tetrazol-5-yl)]MGWMDF-NH2) |  | 
